Experimental data reported in paper PMC4865847, “Putative histidine kinase inhibitors with antibacterial effect against multi-drug resistant clinical isolates identified by in vitro and in silico screens” (Scientific Reports, 2016).
Values after ≈ are worked out from the molar mass of the structure shown. Values joined by “and” are separate entries in the source; they are usually repeats but may differ in a detail not shown here. Equal values may be shown once. Read-outs that look alike come from different tables or passages of the source. Marks after values point to notes of the source that are not given here.

Tests used:
Staphylococcus aureus = assay: Antibacterial susceptibility testing (MIC/MBC), S. aureus; assay type: cell-based
Protocol: (§1) Minimal inhibitory concentrations (MICs) were determined following a standard double-dilution method. […] For S. pneumoniae MICs were determined by adapting the standard double-dilution method to anaerobic conditions and of this microorganism (use of Todd Hewitt Yeast extract with 200 U/mL of catalase and continuous monitoring of growth).

S. aureus PhoR (PhoR^S) [1] = biological target: T1, S. aureus PhoR (PhoR^S) (Staphylococcus aureus, UniProt Q2FXN7); assay: Aggregation analysis by native-PAGE, PhoR^S; settings: 2 mM (S5 and S6 5 mM), 10% DMSO
T1 sequence (Q2FXN7 entry or part of it): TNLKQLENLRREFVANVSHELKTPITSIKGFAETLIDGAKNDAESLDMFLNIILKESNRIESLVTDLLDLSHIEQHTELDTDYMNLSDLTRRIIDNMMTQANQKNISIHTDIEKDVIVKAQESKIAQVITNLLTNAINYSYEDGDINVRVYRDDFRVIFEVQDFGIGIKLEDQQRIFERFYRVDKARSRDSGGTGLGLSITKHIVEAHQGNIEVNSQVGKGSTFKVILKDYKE
Protocol: E. coli PhoR and EnvZ, and S. aureus PhoR ([…], final concentration) were prepared in kinase buffer. […] DMSO in the assays was maintained to a final concentration 10% (v/v). After 30 min of incubation at room temperature Native polyacrylamide gel electrophoresis (Native-PAGE) loading buffer was added and samples loaded. Coomassie blue staining was used for protein visualization.

Acinetobacter baumannii = assay: Antibacterial susceptibility testing (MIC), A. baumannii; assay type: cell-based
Protocol: (§2) Bacterial strains used in this study for antibacterial susceptibility testing (Table S5) were propagated using standard microbiological procedures. Minimal inhibitory concentrations (MICs) were determined following a standard double-dilution method. MICs were recorded as the lowest concentration of the compound where no visible growth was observed. After plating the dilutions around the MIC or growing them in fresh MH media, minimal bactericidal concentration (MBC) was recorded as the lowest concentration of the compound at which no colonies were formed or no growth was observed, respectively. For S. pneumoniae MICs were determined by adapting the standard double-dilution method to anaerobic conditions and of this microorganism (use of Todd Hewitt Yeast extract with 200 U/mL of catalase and continuous monitoring of growth).

Hemolysis assay = assay type: cell-based; settings: human
Protocol: Hemolytic activity against human erythrocytes taken from a healthy donor was measured as previously described. The hemolysis experiments were carried out in accordance with the guidelines of the United Arab Emirates University (UAEU) Research Ethics Review Board. All experimental protocols were approved by the Research Ethics Review Board of UAEU and informed consent was obtained from all donors.

Streptococcus suis = assay: Antibacterial susceptibility testing (MIC), S. suis; assay type: cell-based; settings: Streptococcus suis, read-out: MIC Streptococcus suis 3881/S10, strain 3881/S10
Protocol: as §2

E. coli PhoR (PhoR^E) = biological target: T2, E. coli PhoR (PhoR^E) (Escherichia coli, UniProt P08400); assay: In vitro autophosphorylation kinase assay with γ-32P-ATP, PhoR^E; assay type: biochemical; settings: for IC50: autophosphorylation, one time point (30 sec), 10% DMSO
T2 construct: The catalytic portion (DHp and CA domain) of E. coli PhoR (PhoR^E); made in house; host or cells: E. coli RIL
T2 sequence (P08400 210-425): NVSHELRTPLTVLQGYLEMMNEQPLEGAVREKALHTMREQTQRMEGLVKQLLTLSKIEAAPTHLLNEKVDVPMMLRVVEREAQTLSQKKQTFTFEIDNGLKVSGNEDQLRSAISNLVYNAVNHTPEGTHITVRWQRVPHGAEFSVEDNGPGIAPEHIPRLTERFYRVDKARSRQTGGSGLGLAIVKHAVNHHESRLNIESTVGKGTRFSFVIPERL
Outline: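 Autophosphorylation, initiated with γ-32P-ATP (0.1 μCi/μl; 0.03–0.06 μM ATP final), quenched with SDS/EDTA sample buffer, resolved by SDS-PAGE and quantified by phosphor-imaging. ≈4 μM kinase, fragments up to 20 mM, pH 8.5 Tris buffer with Mg2+; DMSO-matched ligand-free controls.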

[2] = tested on: Staphylococcus epidermidis; assay: Antibacterial susceptibility testing (MIC/MBC), S. epidermidis; assay type: cell-based; settings: Staphylococcus epidermidis
Protocol: as §1

Klebsiella pneumoniae = assay: Antibacterial susceptibility testing (MIC), K. pneumoniae; assay type: cell-based; settings: for MIC: Klebsiella pneumoniae, ATCC700603, strain ATCC 700603
Protocol: as §2

[3] = tested on: Stenotrophomonas maltophilia; assay: Antibacterial susceptibility testing (MIC), S. maltophilia; assay type: cell-based
Protocol: as §2

[4] = Solubility in kinase buffer; assay type: physicochemical; settings: kinase buffer in the presence of 10% DMSO
Streptococcus pneumoniae = assay: Antibacterial susceptibility testing (MIC), S. pneumoniae; assay type: cell-based; settings: strain 49619
Protocol: as §2

S. aureus PhoR (PhoR^S) [5] = biological target: T1, S. aureus PhoR (PhoR^S); assay: In vitro autophosphorylation kinase assay with γ-32P-ATP, PhoR^S; assay type: biochemical
Outline: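 ≈4 μM HK incubated with up to 20 mM fragment in 50 mM Tris HCl pH 8.5, 50 mM KCl, 5 mM MgCl2, 0.5 mM EDTA, 0.1 mM DTT; started with γ-32P-ATP (0.03–0.06 μM ATP final). Quenched with SDS sample buffer/EDTA, run on SDS-PAGE unheated, phosphoprotein quantified by phosphor-imaging.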

[6] = Staphylococcus aureus, ATCC reference strain 25293, read-out: MIC S. aureus 25293
[7] = Staphylococcus aureus, DSM20231, strain DSM 20231, read-out: MIC S. aureus DSM 20231
[8] = Staphylococcus aureus, MRSA clinical isolate 145/08, read-out: MIC S. aureus 145/08
[9] = Staphylococcus aureus, MRSA clinical isolate 274/08, read-out: MIC S. aureus 274/08
[10] = Staphylococcus aureus, MRSA, MRSA clinical isolate T4/6, read-out: MIC S. aureus T4/6
[11] = Staphylococcus aureus, MRSA, MRSA clinical isolate V4180, read-out: MIC S. aureus V4180
[12] = MDR clinical isolate NM8, read-out: MIC A. baumannii NM8
[13] = DSM20044, strain DSM 20044, read-out: MIC S. epidermidis DSM 20044
[14] = clinical isolate T7/3, read-out: MIC S. epidermidis T7/3
[15] = clinical isolate T37/8, read-out: MIC S. epidermidis T37/8
[16] = clinical isolate T6119, read-out: MIC S. epidermidis T6119
[17] = strain RP62A (biofilm producer), read-out: MIC S. epidermidis RP62A
[18] = strain RP62A/1 (non-biofilm producer), read-out: MIC S. epidermidis RP62A/1
[19] = clinical isolate B32/1, read-out: MIC S. maltophilia B32/1

Nc1nc(-c2ccc(Br)cc2)cs1 [F1, 4-(4-bromophenyl)-1,3-thiazol-2-amine]
MIC (Staphylococcus aureus; [6]): 125 µg/mL (≈ 490 µM) | MBC (Staphylococcus aureus; Staphylococcus aureus, DSM20231, strain DSM 20231, read-out: MBC S. aureus DSM 20231): > 500 µg/mL | MIC (Staphylococcus aureus; [7]): 25 µg/mL (≈ 98 µM) | MIC (Staphylococcus aureus; [8]): 125 µg/mL (≈ 490 µM) | MIC (Staphylococcus aureus; [9]): 125 µg/mL (≈ 490 µM) | MIC (Staphylococcus aureus; [10]): 125 µg/mL (≈ 490 µM) | MIC (Staphylococcus aureus; [11]): 125 µg/mL (≈ 490 µM) | MIC (Staphylococcus aureus; Staphylococcus aureus, MRSA, summary over strains, read-out: MICs for the MRSA strains and S. aureus 25293): 125 to 500 µg/mL (≈ 490 to 1960 µM) | HK aggregation, PhoR^S (S. aureus PhoR (PhoR^S) [1]): do not cause HK aggregation | MIC (Acinetobacter baumannii; [12]): > 500 µg/mL | HC50 (Hemolysis assay): > 500 µg/mL | MIC (Streptococcus suis): > 500 µg/mL | IC50 (E. coli PhoR (PhoR^E); read-out: IC50 PhoR^E): ~2000 µM and 2000 µM | MBC ([2]; DSM20044, strain DSM 20044): 250 µg/mL (≈ 980 µM) | MIC [2, 13]: 4 µg/mL (≈ 15.7 µM) | MIC [2, 14]: 63 µg/mL (≈ 247 µM) | MIC [2, 15]: > 500 µg/mL | MIC [2, 16]: > 500 µg/mL | MIC [2, 17]: > 500 µg/mL | MIC [2, 18]: 250 µg/mL (≈ 980 µM) | MIC ([2]; summary over clinical isolates, read-out: MICs for S. epidermidis clinical isolates): 63 µg/mL (≈ 247 µM) | MIC (Klebsiella pneumoniae): > 500 µg/mL | MIC [3, 19]: > 500 µg/mL | solubility in kinase buffer [4]: limited solubility

CC(=O)Nc1cccc(-c2ccccc2Cl)c1 [S1.7, N-[3-(2-chlorophenyl)phenyl]acetamide]
MIC (Staphylococcus aureus; [6]): 125 µg/mL (≈ 509 µM) | MIC (Staphylococcus aureus; [7]): 250 µg/mL (≈ 1020 µM) | MIC (Staphylococcus aureus; Staphylococcus aureus, MRSA clinical isolate 127/08, read-out: MIC S. aureus 127/08): > 500 µg/mL | MIC (Staphylococcus aureus; [8]): > 500 µg/mL | MIC (Staphylococcus aureus; [9]): 250 µg/mL (≈ 1020 µM) | MIC (Staphylococcus aureus; Staphylococcus aureus, MRSA, MRSA clinical isolate S908, read-out: MIC S. aureus S908): > 500 µg/mL | MIC (Staphylococcus aureus; [10]): 250 µg/mL (≈ 1020 µM) | MIC (Staphylococcus aureus; [11]): > 500 µg/mL | MIC (Staphylococcus aureus; Staphylococcus aureus, MRSA, summary over susceptible MRSA clinical isolates, read-out: MICs for MRSA strains): ≥ 250 µg/mL | MIC S. aureus DSM 20231 (Staphylococcus aureus; strain DSM 20231): 250^# μg/ml | bacteriostatic or bactericidal for S. aureus DSM 20231 (Staphylococcus aureus; strain DSM 20231): bacteriostatic | HK aggregation, PhoR^S (S. aureus PhoR (PhoR^S) [1]): do not cause HK aggregation | MIC (Acinetobacter baumannii; [12]): > 500 µg/mL | MIC (Acinetobacter baumannii; MDR clinical isolate NM35, read-out: MIC A. baumannii NM35): > 500 µg/mL | MIC (Acinetobacter baumannii; MDR clinical isolate NM75, read-out: MIC A. baumannii NM75): > 500 µg/mL | MIC (Acinetobacter baumannii; MDR clinical isolate NM109, read-out: MIC A. baumannii NM109): > 500 µg/mL | MIC (Acinetobacter baumannii; MDR clinical isolate NM124, read-out: MIC A. baumannii NM124): > 500 µg/mL | MIC (Streptococcus pneumoniae): 128 µg/mL (≈ 521 µM) | HC50 (Hemolysis assay): > 500 µg/mL | MIC (Streptococcus suis): > 500 µg/mL | inhibition at 2000 µM (E. coli PhoR (PhoR^E); 2 mM, 30 sec, compared to negative control): > 40% | IC50 (E. coli PhoR (PhoR^E); IC50 PhoR^E): 100 µM and ~100 µM | MIC [2, 13]: > 500 µg/mL | MIC [2, 14]: > 500 µg/mL | MIC [2, 15]: > 500 µg/mL | MIC [2, 16]: > 500 µg/mL | MIC [2, 17]: > 500 µg/mL | MIC [2, 18]: > 500 µg/mL | IC50 (S. aureus PhoR (PhoR^S) [5]; IC50 PhoR^S, autophosphorylation, one time point (30 sec), 10% DMSO): 1000 µM and ~1000 µM | inhibition at 2000 µM (S. aureus PhoR (PhoR^S) [5]; read-out: inhibition of PhoR^S autophosphorylation): > 75% | MIC (Klebsiella pneumoniae): > 500 µg/mL | MIC K. pneumoniae ATCC700603 (Klebsiella pneumoniae; strain ATCC 700603): >500 µg/mL | MIC ([3]; clinical isolate B5/5, read-out: MIC S. maltophilia B5/5): > 500 µg/mL | MIC ([3]; clinical isolate B6/2, read-out: MIC S. maltophilia B6/2): > 500 µg/mL | MIC [3, 19]: > 500 µg/mL | solubility ([4]; kinase buffer with 10% DMSO, pH 8.5, aqueous with cosolvent or surfactant or cyclodextrin, kinetic from dmso stock, read-out: concentration above which not soluble / reduced solubility in kinase buffer): ≤ 1000 µM
